Results: patent publication US20060293307A1, “Oxazolidinone derivatives as antimicrobials” (priority 2002, published 2006)
≈ marks a conversion by molar mass, not a printed value. Read-outs that look alike come from different tables or passages of the source.

Key:
[1] = tested on: S. warnerii ST360; assay: MIC, agar incorporation method; format: cell-based
[2] = tested on: E. faecalis 5B (VRE); assay: MIC, agar incorporation method; format: cell-based
[3] = tested on: Moraxella M6; assay: MIC, agar incorporation method; format: cell-based
[4] = tested on: H. influenzae 35056; assay: MIC against Haemophilus strains; format: cell-based
[5] = tested on: H. influenzae βIac; assay: MIC against Haemophilus strains; format: cell-based
[6] = tested on: H. influenzae 1381; assay: MIC against Haemophilus strains; format: cell-based
[7] = tested on: H. influenzae 474; assay: MIC against Haemophilus strains; format: cell-based
[8] = tested on: M. tuberculosis ATCC; assay: MIC against M. tuberculosis strains, agar dilution; format: cell-based, Mycobacterium tuberculosis; conditions: S. No. 01.Mt-, Middle Brook 7H10 + OADC, 37° C., 14-21 days
[9] = tested on: M. tuberculosis ATCC; assay: MIC against M. tuberculosis strains, agar dilution; format: cell-based, Mycobacterium tuberculosis; conditions: S. No. 03 Mt-, Middle Brook 7H10 + OADC, 37° C., 14-21 days
[10] = tested on: M. tuberculosis SGPGI; assay: MIC against M. tuberculosis strains, agar dilution; format: cell-based, Mycobacterium tuberculosis; conditions: S. No. 07 Mt-, Middle Brook 7H10 + OADC, 37° C., 14-21 days
[11] = tested on: M. tuberculosis M-66; assay: MIC against M. tuberculosis strains, agar dilution; format: cell-based, Mycobacterium tuberculosis; conditions: S. No. 08 Mt-, Middle Brook 7H10 + OADC, 37° C., 14-21 days
[12] = tested on: M. tuberculosis M-168; assay: MIC against M. tuberculosis strains, agar dilution; format: cell-based, Mycobacterium tuberculosis; conditions: S. No. 09 Mt-, Middle Brook 7H10 + OADC, 37° C., 14-21 days
[13] = tested on: M. tuberculosis V-3093; assay: MIC against M. tuberculosis strains, agar dilution; format: cell-based, Mycobacterium tuberculosis; conditions: S. No. 14 Mt-, Middle Brook 7H10 + OADC, 37° C., 14-21 days
[14] = tested on: M. tuberculosis M-149; assay: MIC against M. tuberculosis strains, agar dilution; format: cell-based, Mycobacterium tuberculosis; conditions: S. No. 15 Mt-, Middle Brook 7H10 + OADC, 37° C., 14-21 days
[15] = tested on: M. tuberculosis PC; assay: MIC against M. tuberculosis strains, agar dilution; format: cell-based, Mycobacterium tuberculosis; conditions: S. No. 18 Mt-, Middle Brook 7H10 + OADC, 37° C., 14-21 days
[16] = tested on: M. tuberculosis PC; assay: MIC against M. tuberculosis strains, agar dilution; format: cell-based, Mycobacterium tuberculosis; conditions: S. No. 20 Mt-, Middle Brook 7H10 + OADC, 37° C., 14-21 days
[17] = tested on: M. tuberculosis PC 4793; assay: MIC against M. tuberculosis strains, agar dilution; format: cell-based, Mycobacterium tuberculosis; conditions: S. No. 23 Mt-, Middle Brook 7H10 + OADC, 37° C., 14-21 days
[18] = tested on: M. tuberculosis H37Ra; assay: MIC against M. tuberculosis strains, agar dilution; format: cell-based, Mycobacterium tuberculosis; conditions: S. No. 24 Mt-, Middle Brook 7H10 + OADC, 37° C., 14-21 days
[19] = tested on: M. avium AIIMS; assay: MIC against MAC strains, agar dilution; format: cell-based, Mycobacterium avium; conditions: S. No. 04 Ma-4, M. avium AIIMS; Middle Brook 7H10 + OADC, 37° C., 14-21 days
[20] = tested on: M avium ATCC 700897; assay: MIC against MAC strains, agar dilution; format: cell-based, Mycobacterium avium; conditions: S. No. 05 Ma-6, M avium ATCC 700897; Middle Brook 7H10 + OADC, 37° C., 14-21 days
[21] = tested on: M. intracellulare ATCC 35761; assay: MIC against MAC strains, agar dilution; format: cell-based; conditions: S. No. 07 Mi-2, M. intracellulare ATCC 35761; Middle Brook 7H10 + OADC, 37° C., 14-21 days
[22] = tested on: M. avium intracellulare 4; assay: MIC against MAC strains, agar dilution; format: cell-based; conditions: S. No. 11 Mai-2, M. avium intracellulare 4; Middle Brook 7H10 + OADC, 37° C., 14-21 days
[23] = tested on: M. avium intracellulare 1211/96; assay: MIC against MAC strains, agar dilution; format: cell-based; conditions: S. No. 13 Mai-5, M. avium intracellulare 1211/96; Middle Brook 7H10 + OADC, 37° C., 14-21 days
[24] = S. No. 19, E. faecalis 5B (VRE)

| Compound | MIC ([1]; S. No. 16, S. warnerii ST360) [µg/mL] | MIC [2, 24] [µg/mL] | MIC ([3]; S. No. 60, Moraxella M6) [µg/mL] | MIC ([4]; s. No. 1, H. influenzae 35056) [µg/mL] | MIC ([5]; s. No. 3, H. influenzae βIac) [µg/mL] | MIC ([6]; s. No. 7, H. influenzae 1381) [µg/mL] | MIC ([7]; s. No. 11, H. influenzae 474) [µg/mL] | MIC [8] [µg/mL] | MIC [10] [µg/mL] | MIC [11] [µg/mL] | MIC [12] [µg/mL] | MIC [14] [µg/mL] | MIC [16] [µg/mL] | MIC [17] [µg/mL] | MIC [19] [µg/mL] | MIC [20] [µg/mL] | MIC [21] [µg/mL] | MIC [22] [µg/mL] | MIC [23] [µg/mL] | also measured |
| --- | --- | --- | --- | --- | --- | --- | --- | --- | --- | --- | --- | --- | --- | --- | --- | --- | --- | --- | --- | --- |
| CC(=O)NC[C@H]1CN(c2ccc(N3CCN(c4cc(C(OC(C)=O)OC(C)=O)sc4[N+](=O)[O-])CC3)c(F)c2)C(=O)O1 [Compound No. 5, (S)—N-[[3-[3-Fluoro-4-[4-{3-thienyl(2-nitro)-5-acetyloxy}methylacetate]-1-piperazinyl]phenyl]-2-oxo-5-oxazolidinyl]acetamide] | 0.25 (≈ 0.421 µM) | 1 (≈ 1.68 µM) | 2 (≈ 3.37 µM) | >16 | >16 | >16 | >16 | – | – | – | – | – | – | – | – | – | – | – | – | – |
| O=C(NC[C@H]1CN(c2ccc(N3CCN(c4ccc([N+](=O)[O-])s4)CC3)c(F)c2)C(=O)O1)C(Cl)Cl [compound 9, (S)—N-[[3-[-3-Fluoro-4-[N-1-(5-nitro-2-thienyl)-piperazinyl]phenyl] -2-oxo-5-oxazolidinyl]methyl]dichloroacetamide] | 0.5 (≈ 0.939 µM) | 0.5 (≈ 0.939 µM) | 1 (≈ 1.88 µM) | >16 | >16 | >16 | >16 | – | – | – | – | – | – | – | – | – | – | – | – | – |
| NNC(=O)c1ccncc1 [INH] | – | – | – | – | – | – | – | 0.125 | >32 | >32 | 4.0 | 8.0 | 16 | >32 | >32 | 4.0 | 4.0 | 2.0 | 32 | MIC [9]: >32 µg/mL; MIC [13]: 0.06 µg/mL; MIC [15]: 0.25 µg/mL; MIC [18]: 0.25 µg/mL |
| (S)—N-[[3-[-3-Fluoro-4-[(5-nitro-2-thienyl)-3-methyl-1-piperazinyl]phenyl]-2-oxo-5-oxazolidinyl]methyl]acetamide [Compound No. 10] | 0.5 | 1 | 2 | >16 | >16 | >16 | >16 | – | – | – | – | – | – | – | – | – | – | – | – | – |
| CC(=O)NC[C@H]1CN(c2ccc(N3CCN(c4ccc([N+](=O)[O-])o4)CC3)c(F)c2)C(=O)O1 [Compound No. 4, (S)—N-[[3-[3-Fluoro-4-[4-(5-nitro-2-furyl)-1-piperazinyl]phenyl]-2-oxo-5-oxazolidinyl]methyl]acetamide] | – | – | – | – | – | – | – | – | – | – | – | – | – | – | – | – | – | – | – | MIC [1]: 8 µg/mL (≈ 17.9 µM) |
| CC(=O)NC[C@H]1CN(c2ccc(N3CCN(c4ccc([N+](=O)[O-])s4)CC3)cc2)C(=O)O1 [Compound No. 6, (S)—N-[[3-[4-[N-1-(5-nitro-2-thienyl)piperazinyl]-phenyl]-2-oxo-5-oxazolidinyl]-methyl]-acetamide] | 1 (≈ 2.24 µM) | – | – | 16 (≈ 35.9 µM) | 8 (≈ 18 µM) | 16 (≈ 35.9 µM) | 16 (≈ 35.9 µM) | – | – | – | – | – | – | – | – | – | – | – | – | – |
| CC[C@H]1OC(=O)[C@H](C)[C@@H](O[C@H]2C[C@@](C)(OC)[C@@H](O)[C@H](C)O2)[C@H](C)[C@@H](O[C@@H]2O[C@H](C)C[C@H](N(C)C)[C@H]2O)[C@](C)(OC)C[C@@H](C)C(=O)[C@H](C)[C@@H](O)[C@]1(C)O [CLA] | – | – | – | – | – | – | – | 32 | 16 | 16 | 8.0 | 16 | 4.0 | 8.0 | 1.0 | 2.0 | 0.5 | <0.25 | 0.25 | MIC [9]: 32 µg/mL; MIC [13]: 16 µg/mL; MIC [15]: 32 µg/mL; MIC [18]: <0.25 µg/mL |
| CCc1cc(C(N)=S)ccn1 [ETH] | – | – | – | – | – | – | – | 2.0 | >32 | >32 | >32 | >32 | 16 | >32 | 16 | >32 | >32 | 4.0 | 1.0 | MIC [9]: 2.0 µg/mL; MIC [13]: 2.0 µg/mL; MIC [15]: 1.0 µg/mL; MIC [18]: 2.0 µg/mL |
| O=C(NC[C@H]1CN(c2ccc(N3CCN(c4ccc([N+](=O)[O-])s4)CC3)c(F)c2)C(=O)O1)C(F)F [Compound No. 8, (S)—N-[[3-[3-Fluoro-4-[4-(5-nitro-2-thienyl)-1-piperazinyl]phenyl]-2-oxo-5-oxazolidinyl]methyl]difluoroacetamide] | – | – | – | – | – | – | – | – | – | – | – | – | – | – | – | – | – | – | – | MIC [1]: 0.25 µg/mL (≈ 0.501 µM); MIC ([2]; Enterococcus faecalis, VRE): 2 µg/mL (≈ 4 µM); MIC ([3]; Moraxella, M6): 1 µg/mL (≈ 2 µM); MIC ([4]; Haemophilus influenzae, 35056): > 16 µg/mL; MIC ([5]; Haemophilus influenzae): > 16 µg/mL; MIC ([6]; Haemophilus influenzae, 1381): > 16 µg/mL; MIC ([7]; Haemophilus influenzae, 474): > 16 µg/mL |
| C[C@H](Cl)C(=O)NCC1CN(c2ccc(N3CCN(c4ccc([N+](=O)[O-])s4)CC3)c(F)c2)C(=O)O1 (stereo partly drawn) [Compound No. 7, (S)—N-[[3-[3-Fluoro-4-[N-1-{4-(5-nitro-2-thienyl)piperazinyl}]-phenyl]-2-oxo-5-oxazolidinyl]-methyl]-2-chloro-propionamide] | 4 (≈ 7.81 µM) | >8 | >8 | >16 | >16 | >16 | >16 | – | – | – | – | – | – | – | – | – | – | – | – | – |
| CO[C@H]1/C=C/O[C@@]2(C)Oc3c(C)c(O)c4c(O)c(c(/C=N/N5CCN(C)CC5)c(O)c4c3C2=O)NC(=O)/C(C)=C\C=C\[C@H](C)[C@H](O)[C@@H](C)[C@@H](O)[C@@H](C)[C@H](OC(C)=O)[C@@H]1C [RIF] | – | – | – | – | – | – | – | 0.25 | >32 | >32 | 16 | >32 | 2.0 | 2.0 | 4.0 | 1.0 | 0.25 | 0.25 | 0.25 | – |
| CC(=O)NC[C@H]1CN(c2ccc(N3CCN(c4ccc(C=O)s4)CC3)c(F)c2)C(=O)O1 [Compound No. 2, (S)—N-[[3-[3-Fluoro-4-[4-(5-formyl-2-thienyl)-1-piperazinyl]phenyl]-2-oxo-5-oxazolidinyl]methyl]acetamide] | – | – | – | – | – | – | – | – | – | – | – | – | – | – | – | – | – | – | – | MIC [1]: < 0.25 µg/mL; MIC ([2]; Enterococcus faecalis, S. No. 19, E. faecalis 5B (VRE), read-out: MIC): 0.5 µg/mL (≈ 1.12 µM); MIC ([3]; S. No. 60, Moraxella M6, read-out: MIC): 0.5 µg/mL (≈ 1.12 µM); MIC ([4]; Haemophilus influenzae, s. No. 1, H. influenzae 35056, read-out: MIC): 16 µg/mL (≈ 35.8 µM); MIC ([5]; Haemophilus influenzae, s. No. 3, H. influenzae βIac, read-out: MIC): 16 µg/mL (≈ 35.8 µM); MIC ([6]; Haemophilus influenzae, s. No. 7, H. influenzae 1381, read-out: MIC): 8 µg/mL (≈ 17.9 µM); MIC ([7]; Haemophilus influenzae, s. No. 11, H. influenzae 474, read-out: MIC): 16 µg/mL (≈ 35.8 µM) |
